# Assay results published in ChEMBL document CHEMBL1201862, “PubChem BioAssay data set” (2004).
#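 Growth conditions: 96-well plates. Treatment: test compound, 48 hours, 5 concentrations. Analysis: linear interpolation between bracketing concentrations; unreached endpoints set to highest concentration. GI50 is the concentration that inhibits growth by half.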 Activity calls are given as the source filed them. No stated cut-off is given here; in the data, active = GI50 up to about 1.1 µM and inactive = higher.
# What was measured:
# Test in all cases: inhibition of tumour cell growth, NCI panel, 48 h
# KM12 = tested on: KM12
# HCT-116 = tested on: HCT-116
# PC-3 = tested on: PC-3
# HOP-62 = tested on: HOP-62
# SF-268 = tested on: SF-268
# MOLT-4 = tested on: MOLT-4
# SNB-75 = tested on: SNB-75
# RPMI-8226 = tested on: RPMI-8226
# MDA-MB-435 = tested on: MDA-MB-435
# RXF 393 = tested on: RXF 393
# HT-29 = tested on: HT-29
# ACHN = tested on: ACHN
# HOP-92 = tested on: HOP-92
# NCI-H226 = tested on: NCI-H226
# T47D = tested on: T47D
# BT-549 = tested on: BT-549
# CCRF-CEM = tested on: CCRF-CEM
# EKVX = tested on: EKVX
# OVCAR-4 = tested on: OVCAR-4
# SW-620 = tested on: SW-620
# NCI-H460 = tested on: NCI-H460
# CAKI-1 = tested on: CAKI-1
# MDA-MB-231 = tested on: MDA-MB-231
# MDA-N = tested on: MDA-N
# SK-MEL-5 = tested on: SK-MEL-5
# A549 = tested on: A549
# OVCAR-8 = tested on: OVCAR-8
# Hs-578T = tested on: Hs-578T
# OVCAR-5 = tested on: OVCAR-5
# NCI-H23 = tested on: NCI-H23
# 786-0 = tested on: 786-0
# HCT-15 = tested on: HCT-15
# A498 = tested on: A498
# HCC 2998 = tested on: HCC 2998
# K562 = tested on: K562
# U-251 = tested on: U-251
# UACC-257 = tested on: UACC-257
# NCI-H522 = tested on: NCI-H522
# NCI/ADR-RES = tested on: NCI/ADR-RES
# DU-145 = tested on: DU-145
# COLO 205 = tested on: COLO 205
# M14 = tested on: M14
# SF-539 = tested on: SF-539
# SN12C = tested on: SN12C
# UO-31 = tested on: UO-31
# SNB-19 = tested on: SNB-19
# OVCAR-3 = tested on: OVCAR-3
# SK-MEL-28 = tested on: SK-MEL-28
# UACC-62 = tested on: UACC-62
# MCF7 = tested on: MCF7
# SK-OV-3 = tested on: SK-OV-3
# Malme-3M = tested on: Malme-3M
# SF-295 = tested on: SF-295
# IGROV-1 = tested on: IGROV-1
# TK-10 = tested on: TK-10
# LOX IMVI = tested on: LOX IMVI
# SK-MEL-2 = tested on: SK-MEL-2
# HL-60 = tested on: HL-60
smiles,measurement,setting,value
COC(=O)C1Cc2c(OC)ccc(OC)c2CC(C(=O)OC)C1=O (stereo unspecified),GI50,KM12,> 100 µM (inactive)
same,GI50,HCT-116,> 100 µM (inactive)
same,GI50,PC-3,> 100 µM (inactive)
same,GI50,HOP-62,> 100 µM (inactive)
same,GI50,SF-268,> 100 µM (inactive)
same,GI50,MOLT-4,> 100 µM (inactive)
same,GI50,SNB-75,> 100 µM (inactive)
same,GI50,RPMI-8226,> 100 µM (inactive)
same,GI50,MDA-MB-435,> 100 µM (inactive)
same,GI50,RXF 393,> 100 µM (inactive)
same,GI50,HT-29,> 100 µM (inactive)
same,GI50,ACHN,63.5 µM (inactive)
same,GI50,HOP-92,44 µM (inactive)
same,GI50,NCI-H226,> 100 µM (inactive)
same,GI50,T47D,> 100 µM (inactive)
same,GI50,BT-549,> 100 µM (inactive)
same,GI50,CCRF-CEM,> 100 µM (inactive)
same,GI50,EKVX,> 100 µM (inactive)
same,GI50,OVCAR-4,> 100 µM (inactive)
same,GI50,SW-620,> 100 µM (inactive)
same,GI50,NCI-H460,> 100 µM (inactive)
same,GI50,CAKI-1,> 100 µM (inactive)
same,GI50,MDA-MB-231,> 100 µM (inactive)
same,GI50,MDA-N,> 100 µM (inactive)
same,GI50,SK-MEL-5,> 100 µM (inactive)
same,GI50,A549,> 100 µM (inactive)
same,GI50,OVCAR-8,> 100 µM (inactive)
same,GI50,Hs-578T,> 100 µM (inactive)
same,GI50,OVCAR-5,> 100 µM (inactive)
same,GI50,NCI-H23,32.4 µM (inactive)
same,GI50,786-0,> 100 µM (inactive)
same,GI50,HCT-15,> 100 µM
same,GI50,A498,> 100 µM (inactive)
same,GI50,HCC 2998,> 100 µM (inactive)
same,GI50,K562,> 100 µM (inactive)
same,GI50,U-251,> 100 µM (inactive)
same,GI50,UACC-257,> 100 µM (inactive)
same,GI50,NCI-H522,> 100 µM (inactive)
same,GI50,NCI/ADR-RES,> 100 µM (inactive)
same,GI50,DU-145,> 100 µM (inactive)
same,GI50,COLO 205,> 100 µM (inactive)
same,GI50,M14,> 100 µM (inactive)
same,GI50,SF-539,> 100 µM (inactive)
same,GI50,SN12C,> 100 µM (inactive)
same,GI50,UO-31,56 µM (inactive)
same,GI50,SNB-19,> 100 µM (inactive)
same,GI50,OVCAR-3,> 100 µM (inactive)
same,GI50,SK-MEL-28,> 100 µM (inactive)
same,GI50,UACC-62,> 100 µM (inactive)
same,GI50,MCF7,> 100 µM (inactive)
same,GI50,SK-OV-3,> 100 µM (inactive)
same,GI50,Malme-3M,> 100 µM (inactive)
same,GI50,SF-295,> 100 µM (inactive)
same,GI50,IGROV-1,> 100 µM (inactive)
Cc1nc2nc3c(ncn3COCCO)c(O)n2c1C(c1ccccc1)(c1ccccc1)c1ccccc1,GI50,KM12,12.2 µM (inactive)
same,GI50,HCT-116,15.1 µM (inactive)
same,GI50,PC-3,12.9 µM (inactive)
same,GI50,HOP-62,18.6 µM (inactive)
same,GI50,TK-10,16.6 µM (inactive)
same,GI50,SF-268,16 µM (inactive)
same,GI50,MOLT-4,8.2 µM (inactive)
same,GI50,SNB-75,12.8 µM (inactive)
same,GI50,RPMI-8226,12 µM (inactive)
same,GI50,MDA-MB-435,10.9 µM (inactive)
same,GI50,RXF 393,12.8 µM (inactive)
same,GI50,HT-29,11.7 µM (inactive)
same,GI50,ACHN,18 µM (inactive)
same,GI50,HOP-92,16.7 µM (inactive)
same,GI50,T47D,9.27 µM (inactive)
same,GI50,BT-549,0.6 µM (active)
same,GI50,CCRF-CEM,13.2 µM (inactive)
same,GI50,EKVX,19.4 µM (inactive)
same,GI50,OVCAR-4,13.6 µM (inactive)
same,GI50,SW-620,19.5 µM (inactive)
same,GI50,LOX IMVI,13.1 µM (inactive)
same,GI50,NCI-H460,15.2 µM (inactive)
same,GI50,CAKI-1,60 µM (inactive)
same,GI50,SK-MEL-2,14.5 µM (inactive)
same,GI50,MDA-MB-231,14.5 µM (inactive)
same,GI50,MDA-N,13.5 µM (inactive)
same,GI50,SK-MEL-5,15.4 µM (inactive)
same,GI50,A549,18.5 µM (inactive)
same,GI50,OVCAR-8,14 µM (inactive)
same,GI50,Hs-578T,21.2 µM (inactive)
same,GI50,OVCAR-5,18.7 µM (inactive)
same,GI50,NCI-H23,4.63 µM (inactive)
same,GI50,786-0,17.1 µM (inactive)
same,GI50,HCT-15,1.6 µM
same,GI50,A498,18.3 µM (inactive)
same,GI50,HCC 2998,13.6 µM (inactive)
same,GI50,K562,9.25 µM (inactive)
same,GI50,U-251,14.1 µM (inactive)
same,GI50,UACC-257,14.1 µM (inactive)
same,GI50,HL-60,14.1 µM (inactive)
same,GI50,NCI-H522,12.6 µM (inactive)
same,GI50,NCI/ADR-RES,1.55 µM (inactive)
same,GI50,DU-145,12.5 µM (inactive)
same,GI50,COLO 205,14.6 µM (inactive)
same,GI50,M14,16.3 µM (inactive)
same,GI50,SF-539,6.25 µM (inactive)
same,GI50,SN12C,16.5 µM (inactive)
same,GI50,UO-31,30.3 µM (inactive)
same,GI50,SNB-19,14.8 µM (inactive)
same,GI50,OVCAR-3,2.96 µM (inactive)
same,GI50,SK-MEL-28,20 µM (inactive)
same,GI50,UACC-62,11.4 µM (inactive)
same,GI50,MCF7,10.2 µM (inactive)
same,GI50,SK-OV-3,15.9 µM (inactive)
same,GI50,Malme-3M,18.3 µM (inactive)
same,GI50,SF-295,17.3 µM (inactive)
same,GI50,IGROV-1,14 µM (inactive)
